Test results reported in patent US6759384B1, “Factor Xa inhibitors” (Aventis Pharmaceuticals Inc., priority 1994, dated 2004).
pEC50, pKi: −log10 of the molar value. Where a name gives a salt, the structure may show the parent alone. Read-outs that look alike come from different tables or passages of the source. Starred links: 1 amine or outer side, 2 acyl side, 3 side chain; linkers in the order of their positions; H or OH if unused. Non-standard residues stand in square brackets, D forms with d. Residues, ends and D or L forms follow the SMILES beside them. No end group written: not given here. *: point of attachment. X1 = CC(C)CN([C@@H](Cc1ccc(O)cc1)C(=O)[*:2])[*:1]; 2Nal = N[C@@H](Cc1ccc2ccccc2c1)C(=O)O; Chg = N[C@H](C(=O)O)C1CCCCC1; Tfa = O=C(C(F)(F)F)*

What was measured:
[1] = Ex vivo dilute prothrombin time assay after iv administration to rabbits; conditions: rabbit, in vivo, time at which approximately 50% of the initial anticoagulant activity remains in plasma, read-out: T1/2 Rabbit ex vivo
Method: (§1) The compounds of the invention were assessed for their ability to inhibit factor Xa activity. Effectiveness of various compounds was assessed by the in vitro prothrombin time (PT) assay using pooled human donor plasma. An ex vivo assay also was used in which plasma was collected at various times after intravenous (iv) administration of a compound to rats and to rabbits or intraduodenal administration to rats and analyzed using the PT assay to determine plasma half-life. The PT assay was initiated with a thromboplastin dilution selected to obtain an extended and highly reproducible coagulation endpoint, referred to as the “dilute PT assay” as described below. Effectiveness of various compounds also was determined using an in vivo rat arteriovenous shunt model of thrombosis.
(§2) Test compound was administered iv either through the tail vein (rat) or ear vein (rabbit) following an approved protocol. One ml blood samples were removed at timed intervals after administration of a test compound from a cannulated carotid artery (rat) or auricular artery (rabbit). After centrifugation to obtain PPP, the plasma was immediately stored on ice or frozen.
(§3) For dilute prothrombin time determination, the plasma was prewarmed and assayed as described above. Percent inhibition was calculated from a thromboplastin dilution curve, which was run with each series of samples, and used to determine the time at which approximately 50% of the initial anticoagulant activity remains in the plasma (T1/2).

[2] = Ex vivo dilute prothrombin time assay after iv administration to rats; conditions: rat, in vivo, time at which approximately 50% of the initial anticoagulant activity remains in plasma, read-out: T1/2 Rat ex vivo
Method: as §1, §2, §3
Various compounds also were examined for anticoagulant activity using the ex vivo dilute prothrombin time assay following iv bolus administration of various doses in rats. […] The structures of all of the compounds listed in Table 5 were confirmed by MS and AA.

factor Xa = conditions: background section; cited from earlier work
[3] = system: pooled human platelet poor plasma; assay: In vitro dilute prothrombin time assay; format: biochemical; conditions: concentration giving 50% inhibition of coagulation, dilute PT
Method: The compounds of the invention were assessed for their ability to inhibit factor Xa activity. Effectiveness of various compounds was assessed by the in vitro prothrombin time (PT) assay using pooled human donor plasma. An ex vivo assay also was used in which plasma was collected at various times after intravenous (iv) administration of a compound to rats and to rabbits or intraduodenal administration to rats and analyzed using the PT assay to determine plasma half-life. The PT assay was initiated with a thromboplastin dilution selected to obtain an extended and highly reproducible coagulation endpoint, referred to as the “dilute PT assay” as described below. Effectiveness of various compounds also was determined using an in vivo rat arteriovenous shunt model of thrombosis. […]
Alternatively, the dilute prothrombin time assay was conducted using the “research” mode on an Instrumentation Laboratories (IL) ACL3000-plus automated coagulation instrument (IL; Milan, Italy). […] During the assay, a 50 μl sample (plasma separated by centrifugation) was mixed with 100 μl thromboplastin reagent and nephelometric readings were taken over 169 sec. Coagulation time was determined from the maximal rate of change of light scatter calculated by the instrument. Inhibition is expressed as percent activity as determined by comparison with the calibration curve.

[4] = target: T1, human neutrophil elastase (Homo sapiens, UniProt P08246); assay: Elastase chromogenic assay; format: biochemical; conditions: Table 2
T1 construct: purchased Athens Research and Technology, Inc; Athens Ga
T1 sequence (P08246 30-247 limits assumed): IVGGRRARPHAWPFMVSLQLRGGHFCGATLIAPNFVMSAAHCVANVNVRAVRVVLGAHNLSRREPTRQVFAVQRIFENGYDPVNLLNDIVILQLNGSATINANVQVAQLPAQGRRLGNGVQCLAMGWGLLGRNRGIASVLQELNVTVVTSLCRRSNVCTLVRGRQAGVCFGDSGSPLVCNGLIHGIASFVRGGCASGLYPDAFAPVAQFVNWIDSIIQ
Method: (§4) The ability of a compound of the invention to inhibit factor Xa, thrombin, plasmin, elastase and trypsin was assessed by determining the concentration of YIR peptide that inhibits enzyme activity by 50% (IC50). Purified enzymes were used in chromogenic assays. To determine the inhibition constant, the IC50 value was corrected for competition with substrate using the formula:
(§5) Ki=IC50×(1/{1+((substrate concentration)/substrate Km)})
Tris-Cl, pH 7.4, 300 mM NaCl, 2% (v/v) N-methyl-pyrrolidone, 0.01% (w/v) NaN3 buffer was used for this assay. The IC50 was determined as described in Example XXXVII.a., except that the substrate was succinyl-Ala-Ala-Ala-p-nitroanilide (Calbiochem-Nova Biochem Corp.; San Diego Calif.) and the enzyme was human neutrophil elastase (Athens Research and Technology, Inc.; Athens Ga.). The enzyme concentration was 75 nM and the substrate concentration was 600 μM.

human factor Xa = target: T2, human factor Xa (Homo sapiens, UniProt P00742); assay: Factor Xa chromogenic assay; format: biochemical
T2 construct: purchased Enzyme Research Laboratories, Inc; South Bend Ind
Method: as §4, §5
(Chen and Prusoff, Biochem. Pharmacol. 22:3099-[…] (1973), which is incorporated herein by reference).
TBS-P buffer (50 mM Tris-Cl, pH 7.8, 200 mM NaCl, 0.05% (w/v) PEG-8000, 0.02% (w/v) NaN3) was used for this assay. The IC50 was determined by combining in appropriate wells of a Costar half-area microtiter plate 25 μl human factor Xa (Enzyme Research Laboratories, Inc.; South Bend Ind.) in TBS-P; 40 μl 10% (v/v) DMSO in TBS-P (uninhibited control) or various concentrations of a peptide to be tested diluted in 10% (v/v) DMSO in TBS-P; and substrate S-2765 (Nα-benzyloxycarbonyl-D-Arg-Gly-L-Arg-p-nitroanilide; Kabi Pharmacia, Inc.; Franklin Ohio) in TBS-P.
The assays were performed by pre-incubating the peptide inhibitor plus enzyme for 10 min, then the assay was initiated by adding substrate to obtain a final volume of 100 μl. The initial velocity of chromogenic substrate hydrolysis was measured by the change in absorbance at 405 nm using a Bio-tek Instruments kinetic plate reader (Ceres UV900HDi) at 25° C. during the linear portion of the time course (usually 1-5 min after addition of substrate). The concentration of inhibitor that caused a 50% decrease in the rate of substrate hydrolysis was predicted by linear regression after plotting the relative rates of hydrolysis (compared to the uninhibited control) versus the log of the peptide concentration. The enzyme concentration was 0.5 nM and substrate concentration was 140 μM.

human plasmin = target: T3, human plasmin (Homo sapiens, UniProt P00747); assay: Plasmin chromogenic assay; format: biochemical; conditions: Table 2
T3 construct: the enzyme was human plasmin (Kabi); purchased Kabi
Method: as §4, §5
TBS-P buffer was used for this assay. The IC50 was determined as described in Example XXXVII.a., except that the substrate was S-2251 ((D)-Val-L-Leu-L-Lys-p-nitroanilide; Kabi) and the enzyme was human plasmin (Kabi). The enzyme concentration was 5 nM and the substrate concentration was 300 uM.

human thrombin = target: T4, human thrombin (Homo sapiens, UniProt P00734); assay: Thrombin chromogenic assay; format: biochemical; conditions: Table 2
T4 construct: purchased Enzyme Research Laboratories, Inc; South Bend Ind
Method: as §4, §5
TBS-P buffer was used for this assay. The IC50 was determined as described in Example XXXVII.a., except that the substrate was S-2366 (L-PyroGlu-L-Pro-L-Arg-p-nitroanilide; Kabi) and the enzyme was human thrombin (Enzyme Research Laboratories, Inc.; South Bend Ind.). The enzyme concentration was 1 nM and substrate concentration was 175 μM.

[5] = target: T5, bovine pancreatic trypsin (Bos taurus, UniProt P00760); assay: Trypsin chromogenic assay; format: biochemical; conditions: Table 2; * no significant inhibition at the highest concentration tested
T5 construct: purchased Sigma Type XIII, TPCK treated; host or cells: bovine pancreas
T5 sequence (P00760 24-246): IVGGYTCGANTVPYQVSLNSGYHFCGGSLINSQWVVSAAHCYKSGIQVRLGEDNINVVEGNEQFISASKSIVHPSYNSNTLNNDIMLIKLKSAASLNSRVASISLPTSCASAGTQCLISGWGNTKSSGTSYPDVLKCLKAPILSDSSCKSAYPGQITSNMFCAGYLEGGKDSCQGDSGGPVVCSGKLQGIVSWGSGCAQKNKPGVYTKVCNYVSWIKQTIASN
Method: as §4, §5
TBS-P buffer containing 10 mM CaCl2 was used for this assay. The IC50 determination was determined as described in Example XXXVII.a., except that the substrate was BAPNA (Benzoyl-L-Arg-p-nitroanilide; Sigma Chemical Co.; St. Louis Mo.) and the enzyme was bovine pancreatic trypsin (Type XIII, TPCK treated; Sigma). The enzyme concentration was 50 nM and the substrate concentration was 300 μM.

T2 sequence (P00742 235-488 limits assumed): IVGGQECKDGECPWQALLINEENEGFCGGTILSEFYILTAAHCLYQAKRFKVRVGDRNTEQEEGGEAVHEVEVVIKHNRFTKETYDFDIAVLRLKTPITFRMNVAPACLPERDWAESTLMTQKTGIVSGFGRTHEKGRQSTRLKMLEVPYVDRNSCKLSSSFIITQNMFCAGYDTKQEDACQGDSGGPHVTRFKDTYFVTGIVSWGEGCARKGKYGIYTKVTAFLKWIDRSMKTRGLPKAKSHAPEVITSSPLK
T2 sequence (P00742 41-179 partner limits assumed): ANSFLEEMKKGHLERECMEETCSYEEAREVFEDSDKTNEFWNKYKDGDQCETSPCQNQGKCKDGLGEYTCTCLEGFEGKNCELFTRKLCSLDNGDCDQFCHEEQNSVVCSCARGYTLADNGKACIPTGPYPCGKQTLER
T3 sequence (P00747 581-810 limits assumed): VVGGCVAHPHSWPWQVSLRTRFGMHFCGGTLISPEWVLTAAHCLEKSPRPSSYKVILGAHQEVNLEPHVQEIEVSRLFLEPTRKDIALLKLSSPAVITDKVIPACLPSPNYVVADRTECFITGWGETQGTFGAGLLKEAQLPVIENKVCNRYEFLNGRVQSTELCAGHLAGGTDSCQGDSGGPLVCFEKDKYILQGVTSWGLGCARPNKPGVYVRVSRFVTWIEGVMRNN
T3 sequence (P00747 97-580 partner limits assumed): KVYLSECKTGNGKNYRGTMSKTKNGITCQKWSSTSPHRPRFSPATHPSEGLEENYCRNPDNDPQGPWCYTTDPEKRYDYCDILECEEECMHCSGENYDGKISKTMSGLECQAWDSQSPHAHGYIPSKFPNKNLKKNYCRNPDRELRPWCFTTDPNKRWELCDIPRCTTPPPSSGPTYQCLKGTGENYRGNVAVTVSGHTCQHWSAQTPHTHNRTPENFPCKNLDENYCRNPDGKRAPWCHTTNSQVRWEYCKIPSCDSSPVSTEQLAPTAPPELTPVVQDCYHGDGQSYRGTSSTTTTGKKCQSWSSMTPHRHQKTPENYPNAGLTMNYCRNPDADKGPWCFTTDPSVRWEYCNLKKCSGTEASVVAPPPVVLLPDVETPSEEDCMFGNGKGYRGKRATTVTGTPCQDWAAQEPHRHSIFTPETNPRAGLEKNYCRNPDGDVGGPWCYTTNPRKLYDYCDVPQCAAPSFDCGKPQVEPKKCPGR

CC(=O)N[C@@H](Cc1ccc(O)cc1)C(=O)N[C@H](C(=O)N[C@@H](CCCNC(=N)N)C(N)=O)C1CCCCC1 [Ac—Y—Chg—R—NH2] (Ac-Tyr-[Chg]-Arg-NH2)
half-life [1]: 5 min
half-life [2]: 5 min

CC(C)C[C@H](NC(=O)[C@H](CCCNC(=N)N)NC(=O)[C@@H](NC(=O)[C@H](Cc1ccc(O)cc1)N(CC(C)C)C(=O)C(F)(F)F)C1CCCCC1)C(=O)N1CCC[C@H]1C(N)=O [Tfa—(iBu)Y—Chg—R—L—P—NH2, Tfa-(iBu)Tyr-Chg-Arg-Leu-Pro-NH2] (Tfa-[X1][Chg]RLP-NH2)
half-life [1]: 10 min
half-life [2]: 15 min

N=C(N)c1ccc(C=C2CCCCC(=Cc3ccc(C(=N)N)cc3)C2=O)cc1 [2,7-bis-(4-amidinobenzylidene)-cycloheptanone, reference compound]
pKi (factor Xa): ~7.70

CC(=O)N[C@@H](Cc1ccc2ccccc2c1)C(=O)N[C@H](C(=O)N[C@@H](CCCNC(=N)N)C(=O)N[C@@H](CC(C)C)C(=O)N1CCC[C@H]1C(N)=O)C1CCCCC1 [Ac—Nal(2)—Chg—R—L—P—NH2, Ac-Nal(2)-Chg-Arg-Leu-Pro-NH2] (Ac-[2Nal][Chg]RLP-NH2)
pEC50 [3]: 6.85
half-life [1]: 5 min
half-life [2]: 6 min

CC[C@H](C)[C@H](NC(=O)[C@H](Cc1ccc(O)cc1)N(CC(C)C)C(C)=O)C(=O)N[C@@H](CCCNC(=N)N)C(=O)N[C@@H](CC(C)C)C(=O)N1CCC[C@H]1C(N)=O [Ac-(iBu)Y-I-R-L-P, Ac-(iBu)Tyr-Ile-Arg-Leu-Pro-NH2] (Ac-[X1]IRLP-NH2)
pKi [4]: < 4.00
pKi (human factor Xa; Example XXXVI, read-out: Ki (inhibition of factor Xa activity)): 7.40
pKi (human plasmin): < 3.70

N-alpha-tosyl-Gly-p-amidinophenylalanine methyl ester [TENSTOP, reference compound]
pKi [4]: < 3.70
pKi (human factor Xa; Table 2, read-out: Ki Xa): 5.70
pKi (factor Xa): ~6.10
pKi (human thrombin): 5.70
pKi (human plasmin): < 3.70

TAP: tick anticoagulant peptide, isolated from the tick Ornithodoros moubata, 60 amino acids (YNRLCIKPRDWIDECDSNEGGERAYFRNGKGGCDSFWICPEDHTGADYYSSYRDCFNACI; ends and bridges not checked; cysteine pairing not given here; UniProt P17726 1-60, looked up)
pKi (factor Xa): ~9.30

CC(=O)N[C@@H](Cc1ccc(O)cc1)C(=O)N[C@H](C(=O)N[C@@H](CCCNC(=N)N)C(=O)N[C@@H](CC(C)C)C(=O)N1CCC[C@H]1C(N)=O)C1CCCCC1 [Ac—Y—Chg—R—L—P—NH2, Ac-Tyr-Chg-Arg-Leu-Pro-NH2] (Ac-Y[Chg]RLP-NH2)
pEC50 [3]: 6.65
half-life [1]: 5 min
half-life [2]: 5 min

YIRLAAET [Ac-Y-I-R-L-A-A-E-T, Ac-Y-I-R-L-A-A-E-T (SEQ ID NO:9)]
pKi [5]: < 3.70
pKi (human factor Xa; Table 2, read-out: Ki Xa): 5.82
